Consider 5 compounds from patent publication US10336792B2, “Antimicrobial peptide dendrimers” (priority 2014, dated 2019).

Molecules are shown by their SMILES. Converted amounts (≈) assume the structure as drawn. Positions of bridges follow the written chain, without caps; N, C: chain ends. Residues, ends and D or L forms follow the SMILES beside them. Groups on a side chain read outwards from the residue. Chains are numbered I, II in the order given.

The experiment has as its system Pseudomonas aeruginosa (strain PA01). As to the kind of experiment: microbe, parasite or virus in culture. It counts as cell-based. Particulars: strain. How it is done: Antimicrobial activity was assayed against Bacillus subtilis (strain BR151), Escherichia coli (strain DH5α) and Pseudomonas aeruginosa (strain PA01). Microdilution broth method was used to determine the minimal inhibitory concentration (MIC). A colony of bacteria was grown in LB-medium overnight at 37° C. The concentration was quantified by measuring absorbance at 600 nm and diluted to OD600=0.1 (1×10^8 CFU/mL). The samples were prepared as stock solutions of 1 mg mL^−1 in H2O and diluted serially by ⅔ in nutrient LB in a 96-well microtiterplate (Cornstar, polypropylene, untreated). The sample solutions (50 μL) were mixed with the diluted bacterial suspension with an OD600 nm of 0.001 (50 μL). […] The plates were incubated at 37° C. until satisfactory growth (18-24 h). For each test, two columns of the plate were kept for sterility control (SC, broth only) and growth control (GC, broth with bacterial inoculums, no antibiotics). 10 μL of a solution of MTT (0.1% in H2O) was added to each well. The minimal inhibitory concentration (MIC) was defined as the lowest concentration of the antimicrobial substance (peptide dendrimer) that inhibited visible growth of the tested bacteria (yellow) with the unaided eye. For microbiological study the linear peptide LysTyrLysLysAlaLeuLysLysLeuAlaLysLeuLeu (SEQ ID No. 1) was used as reference.
All peptides were tested for their activity against P. aeruginosa PAO1 in a broth dilution assay (Wiegand, I. et al., 2008, Nat. Protoc., 3, 163-75; Clinical and Laboratory Standards Institute document M7-A7 7th Edition) to determine the MIC (minimal inhibitory concentration) values. The stock solutions of the peptide dendrimers were diluted serially by ⅔ in nutrient LB in 96-well microtiter plates. Bacteria were grown in nutrient LB overnight at 37° C. After dilution the bacteria were added to the peptides and incubated overnight (18-24 h) at 37° C. […] The position of the amino acids between the branching units seems to be optimal if the hydrophobic amino acid is the first counting from C-terminus and the charged one is on the second position. Introducing Ala as additional hydrophobic amino acid reduces activity (MSt-120). […] Also assembling charged or hydrophobic sections between the branching units leads to loss of activity whereas altering L-amino acids to D-amino acids maintains activity leading to the hypothesis that the mechanism of action should not be receptor mediated.
For `CC(C)C[C@H](NC(=O)[C@H](CCCNC(=N)N)NC(=O)[C@H](CCCCNC(=O)[C@H](CC(C)C)NC(=O)[C@H](CCCNC(=N)N)NC(=O)[C@H](CCCCNC(=O)[C@H](CC(C)C)NC(=O)[C@H](CCCNC(=N)N)NC(=O)CSC[C@H](NC(=O)[C@H](CC(C)C)NC(=O)[C@H](CCCNC(=N)N)NC(=O)[C@H](CCCCNC(=O)[C@H](CC(C)C)NC(=O)[C@@H](N)CCCNC(=N)N)NC(=O)[C@H](CC(C)C)NC(=O)[C@@H](N)CCCNC(=N)N)C(N)=O)NC(=O)[C@H](CC(C)C)NC(=O)[C@H](CCCNC(=N)N)NC(=O)CSC[C@H](NC(=O)[C@H](CC(C)C)NC(=O)[C@H](CCCNC(=N)N)NC(=O)[C@H](CCCCNC(=O)[C@H](CC(C)C)NC(=O)[C@@H](N)CCCNC(=N)N)NC(=O)[C@H](CC(C)C)NC(=O)[C@@H](N)CCCNC(=N)N)C(N)=O)NC(=O)[C@H](CC(C)C)NC(=O)[C@H](CCCNC(=N)N)NC(=O)[C@H](CCCCNC(=O)[C@H](CC(C)C)NC(=O)[C@H](CCCNC(=N)N)NC(=O)CSC[C@H](NC(=O)[C@H](CC(C)C)NC(=O)[C@H](CCCNC(=N)N)NC(=O)[C@H](CCCCNC(=O)[C@H](CC(C)C)NC(=O)[C@@H](N)CCCNC(=N)N)NC(=O)[C@H](CC(C)C)NC(=O)[C@@H](N)CCCNC(=N)N)C(N)=O)NC(=O)[C@H](CC(C)C)NC(=O)[C@H](CCCNC(=N)N)NC(=O)CSC[C@H](NC(=O)[C@H](CC(C)C)NC(=O)[C@H](CCCNC(=N)N)NC(=O)[C@H](CCCCNC(=O)[C@H](CC(C)C)NC(=O)[C@@H](N)CCCNC(=N)N)NC(=O)[C@H](CC(C)C)NC(=O)[C@@H](N)CCCNC(=N)N)C(N)=O)C(N)=O` [CCS-27, (RL)8(KRLCxRL)4(KRL)2KRL], the “MIC P. aeruginosa PAO1” value was 12 µg/mL (≈ 1.8 µM).

Turning to `CC(C)C[C@H](NC(=O)[C@H](CCCCN)NC(=O)[C@H](CC(C)C)NC(=O)[C@H](CCCCNC(=O)[C@H](CC(C)C)NC(=O)[C@H](CCCCN)NC(=O)[C@H](CC(C)C)NC(=O)[C@H](CCCCNC(=O)[C@H](CC(C)C)NC(=O)[C@H](CCCCN)NC(=O)[C@H](CC(C)C)NC(=O)[C@H](CCCCNC(=O)[C@H](CC(C)C)NC(=O)[C@H](CCCCN)NC(=O)[C@@H](N)CC(C)C)NC(=O)[C@H](CC(C)C)NC(=O)[C@H](CCCCN)NC(=O)[C@@H](N)CC(C)C)NC(=O)[C@H](CC(C)C)NC(=O)[C@H](CCCCN)NC(=O)[C@H](CC(C)C)NC(=O)[C@H](CCCCNC(=O)[C@H](CC(C)C)NC(=O)[C@H](CCCCN)NC(=O)[C@@H](N)CC(C)C)NC(=O)[C@H](CC(C)C)NC(=O)[C@H](CCCCN)NC(=O)[C@@H](N)CC(C)C)NC(=O)[C@H](CC(C)C)NC(=O)[C@H](CCCCN)NC(=O)[C@H](CC(C)C)NC(=O)[C@H](CCCCNC(=O)[C@H](CC(C)C)NC(=O)[C@H](CCCCN)NC(=O)[C@H](CC(C)C)NC(=O)[C@H](CCCCNC(=O)[C@H](CC(C)C)NC(=O)[C@H](CCCCN)NC(=O)[C@@H](N)CC(C)C)NC(=O)[C@H](CC(C)C)NC(=O)[C@H](CCCCN)NC(=O)[C@@H](N)CC(C)C)NC(=O)[C@H](CC(C)C)NC(=O)[C@H](CCCCN)NC(=O)[C@H](CC(C)C)NC(=O)[C@H](CCCCNC(=O)[C@H](CC(C)C)NC(=O)[C@H](CCCCN)NC(=O)[C@@H](N)CC(C)C)NC(=O)[C@H](CC(C)C)NC(=O)[C@H](CCCCN)NC(=O)[C@@H](N)CC(C)C)C(N)=O` [MIS-08, (LKL)8(KLKL)4(KLKL)2(KLKL)] (I: H-LKLK([Leu-Lys-Leu])LKLKLKLKLKL-NH2 / II: H-LKLK([Leu-Lys-Leu])LKLKLKL / III: H-LKLK([Leu-Lys-Leu])LKL / IV: H-LKLK([Leu-Lys-Leu])LKL; amide I:8-IV:C, I:12-II:C, II:8-III:C), the “MIC P. aeruginosa PAO1” value worked out at 4 µg/mL (≈ 0.642 µM).

For the compound `CC(C)C[C@H](NC(=O)[C@H](CC(C)C)NC(=O)[C@H](CCCCN)NC(=O)[C@H](CCCCNC(=O)[C@H](CC(C)C)NC(=O)[C@H](CC(C)C)NC(=O)[C@H](CCCCN)NC(=O)[C@H](CCCCNC(=O)[C@H](CC(C)C)NC(=O)[C@H](CC(C)C)NC(=O)[C@H](CCCCN)NC(=O)[C@H](CCCCNC(=O)[C@H](CC(C)C)NC(=O)[C@H](CC(C)C)NC(=O)[C@@H](N)CCCCN)NC(=O)[C@H](CC(C)C)NC(=O)[C@H](CC(C)C)NC(=O)[C@@H](N)CCCCN)NC(=O)[C@H](CC(C)C)NC(=O)[C@H](CC(C)C)NC(=O)[C@H](CCCCN)NC(=O)[C@H](CCCCNC(=O)[C@H](CC(C)C)NC(=O)[C@H](CC(C)C)NC(=O)[C@@H](N)CCCCN)NC(=O)[C@H](CC(C)C)NC(=O)[C@H](CC(C)C)NC(=O)[C@@H](N)CCCCN)NC(=O)[C@H](CC(C)C)NC(=O)[C@H](CC(C)C)NC(=O)[C@H](CCCCN)NC(=O)[C@H](CCCCNC(=O)[C@H](CC(C)C)NC(=O)[C@H](CC(C)C)NC(=O)[C@H](CCCCN)NC(=O)[C@H](CCCCNC(=O)[C@H](CC(C)C)NC(=O)[C@H](CC(C)C)NC(=O)[C@@H](N)CCCCN)NC(=O)[C@H](CC(C)C)NC(=O)[C@H](CC(C)C)NC(=O)[C@@H](N)CCCCN)NC(=O)[C@H](CC(C)C)NC(=O)[C@H](CC(C)C)NC(=O)[C@H](CCCCN)NC(=O)[C@H](CCCCNC(=O)[C@H](CC(C)C)NC(=O)[C@H](CC(C)C)NC(=O)[C@@H](N)CCCCN)NC(=O)[C@H](CC(C)C)NC(=O)[C@H](CC(C)C)NC(=O)[C@@H](N)CCCCN)C(N)=O` [MIS-06, (KLL)8(KKLL)4(KKLL)2(KKLL)] (I: H-KLLK([Leu-Leu-Lys])KLLKKLLKKLL-NH2 / II: H-KLLK([Leu-Leu-Lys])KLLKKLL / III: H-KLLK([Leu-Leu-Lys])KLL / IV: H-KLLK([Leu-Leu-Lys])KLL; amide I:8-IV:C, I:12-II:C, II:8-III:C), the “MIC P. aeruginosa PAO1” value worked out at 11 µg/mL (≈ 1.77 µM).

As for `CC(C)C[C@H](NC(=O)[C@H](CCCCN)NC(=O)[C@H](CC(C)C)NC(=O)[C@H](CCCCNC(=O)[C@H](CC(C)C)NC(=O)[C@H](CCCCN)NC(=O)[C@H](CC(C)C)NC(=O)[C@H](CCCCNC(=O)[C@H](CC(C)C)NC(=O)[C@H](CCCCN)NC(=O)[C@@H](N)CC(C)C)NC(=O)[C@H](CC(C)C)NC(=O)[C@H](CCCCN)NC(=O)[C@@H](N)CC(C)C)NC(=O)[C@H](CC(C)C)NC(=O)[C@H](CCCCN)NC(=O)[C@H](CC(C)C)NC(=O)[C@H](CCCCNC(=O)[C@H](CC(C)C)NC(=O)[C@H](CCCCN)NC(=O)[C@@H](N)CC(C)C)NC(=O)[C@H](CC(C)C)NC(=O)[C@H](CCCCN)NC(=O)[C@@H](N)CC(C)C)C(N)=O` [MIS-04, (LKL)4(KLKL)2(KLKL)] (I: H-LKLK([Leu-Lys-Leu])LKLKLKL-NH2 / II: H-LKLK([Leu-Lys-Leu])LKL; amide I:8-II:C), the “MIC P. aeruginosa PAO1” value came to 2 µg/mL (≈ 0.694 µM).

Turning to `CC(C)C[C@H](NC(=O)[C@H](CCCCN)NC(=O)[C@H](CCCCN)NC(=O)[C@H](CCCCNC(=O)[C@H](CC(C)C)NC(=O)[C@H](CCCCN)NC(=O)[C@H](CC(C)C)NC(=O)[C@H](CCCCNC(=O)[C@H](CC(C)C)NC(=O)[C@H](CCCCN)NC(=O)[C@H](CCCCNC(=O)[C@H](CC(C)C)NC(=O)[C@@H](N)CCCCN)NC(=O)[C@H](CC(C)C)NC(=O)[C@@H](N)CCCCN)NC(=O)[C@H](CC(C)C)NC(=O)[C@H](CCCCN)NC(=O)[C@H](CCCCNC(=O)[C@H](CC(C)C)NC(=O)[C@@H](N)CCCCN)NC(=O)[C@H](CC(C)C)NC(=O)[C@@H](N)CCCCN)NC(=O)[C@H](CC(C)C)NC(=O)[C@H](CCCCN)NC(=O)[C@H](CC(C)C)NC(=O)[C@H](CCCCNC(=O)[C@H](CC(C)C)NC(=O)[C@H](CCCCN)NC(=O)[C@H](CCCCNC(=O)[C@H](CC(C)C)NC(=O)[C@@H](N)CCCCN)NC(=O)[C@H](CC(C)C)NC(=O)[C@@H](N)CCCCN)NC(=O)[C@H](CC(C)C)NC(=O)[C@H](CCCCN)NC(=O)[C@H](CCCCNC(=O)[C@H](CC(C)C)NC(=O)[C@@H](N)CCCCN)NC(=O)[C@H](CC(C)C)NC(=O)[C@@H](N)CCCCN)C(N)=O` [YGO-008, (KL)8(KKL)4(KLKL)2(KKKL)] (I: H-KLK([Leu-Lys])KLKLKLKKKL-NH2 / II: H-KLK([Leu-Lys])KLKLKL / III: H-KLK([Leu-Lys])KL / IV: H-KLK([Leu-Lys])KL; amide I:6-IV:C, I:10-II:C, II:6-III:C), the “MIC P. aeruginosa PAO1” value was 2 µg/mL (≈ 0.409 µM).
